Legend:
ABCB10 (ABCB10-V5) [1] = target: T1, ABCB10 (ABCB10-V5) (Mus musculus, UniProt Q9JI39); assay: competition with 8-azido-ATP [γ] biotin photolabelling in SMPs, anti-V5 IP; conditions: 50 μM 8-azido-ATP [γ] biotin, 3 mM MgCl2, pH 7.5, on ice; nucleotide binding domain, competitive
T1 construct: full-length cDNA in pEF1alpha-V5-His (V5-His tagged), overexpressed in HEK293; detected at approx. 65 kD; assayed in sub-mitochondrial particles, then anti-V5 immunoprecipitated
T1 sequence (Q9JI39 83-715): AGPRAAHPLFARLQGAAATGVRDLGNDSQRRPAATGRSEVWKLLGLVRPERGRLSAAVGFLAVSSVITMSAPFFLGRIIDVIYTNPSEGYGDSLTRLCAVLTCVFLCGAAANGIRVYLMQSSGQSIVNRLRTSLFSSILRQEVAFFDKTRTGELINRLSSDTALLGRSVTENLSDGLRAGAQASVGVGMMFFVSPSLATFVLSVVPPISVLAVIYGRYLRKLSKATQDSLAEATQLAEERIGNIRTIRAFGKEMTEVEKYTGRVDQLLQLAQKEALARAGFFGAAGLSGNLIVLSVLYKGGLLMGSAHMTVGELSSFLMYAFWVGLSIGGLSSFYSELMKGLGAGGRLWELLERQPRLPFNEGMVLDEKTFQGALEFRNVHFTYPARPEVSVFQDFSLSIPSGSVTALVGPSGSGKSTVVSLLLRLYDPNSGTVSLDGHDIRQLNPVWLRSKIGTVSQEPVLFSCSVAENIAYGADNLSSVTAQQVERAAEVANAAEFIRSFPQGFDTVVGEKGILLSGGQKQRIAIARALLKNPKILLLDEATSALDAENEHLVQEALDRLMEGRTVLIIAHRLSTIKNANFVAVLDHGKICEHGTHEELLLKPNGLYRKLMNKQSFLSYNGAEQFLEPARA

ABCB10 (ABCB10-V5) [2] = target: T1, ABCB10 (ABCB10-V5); assay: UV photolabelling of SMPs, anti-V5 IP, ExtrAvidin-HRP blot; conditions: 3 mM MgCl2, pH 7.5, on ice; covalent after UV irradiation; labelled compound; net of binding and hydrolysis

Compound | competition with 8-azido-ATP [γ] biotin photolabelling in SMPs, anti-V5 IP (ABCB10 (ABCB10-V5) [1]) | Km (ABCB10 (ABCB10-V5) [2])
Nc1ccn([C@@H]2O[C@H](COP(=O)(O)OP(=O)(O)OP(=O)(O)O)[C@@H](O)[C@H]2O)c(=O)n1 [CTP] | GTP, CTP and TTP could compete with ATP, but their effect was milder | –
Nc1ncnc2c1ncn2[C@@H]1O[C@H](COP(=O)(O)OP(=O)(O)OP(=O)(O)O)[C@@H](O)[C@H]1O [ATP] | Increasing concentrations of unlabeled ATP decreased 8-azido-ATP [γ] biotin photolabeling | –
Cc1cn([C@H]2C[C@H](O)[C@@H](COP(=O)(O)OP(=O)(O)OP(=O)(O)O)O2)c(=O)[nH]c1=O [TTP] | GTP, CTP and TTP could compete with ATP, but their effect was milder | –
Nc1nc2c(ncn2[C@@H]2O[C@H](COP(=O)(O)OP(=O)(O)OP(=O)(O)O)[C@@H](O)[C@H]2O)c(=O)[nH]1 [GTP] | GTP, CTP and TTP could compete with ATP, but their effect was milder | –
8-azido-ATP [γ] biotin | – | 128 µM

From PMC4459825, “ATP Binding and Hydrolysis Properties of ABCB10 and Their Regulation by Glutathione” (PLoS ONE, 2015)
